Assay [1] deals with collagen I gene expression in the liver. In words: Effect on liver fibrosis caused by non-alcoholic steatohepatitis (liver collagen I gene expression). Particulars: LDL receptor deficient mouse, choline-deficient amino acid diet; oral once per day for 3 weeks; normalized by GAPDH; P<0.05 vs. control (FIG. 1). The format is in vivo. From the text:
The effect of the present compound on liver fibrosis caused by non-alcoholic steatohepatitis was verified by the following method.
For efficacy evaluation of the antifibrotic action, 9-week-old, male, homo low-density lipoprotein receptor deficient mouse was used. The low-density lipoprotein receptor deficient mouse was purchased from Jackson Laboratories (Bar Harbor, Me., USA) and bred in Takeda Pharmaceutical Industry. To induce non-alcoholic steatohepatitis, a choline-deficient amino acid diet (A08111307, Research Diets, New Brunswick, N.J., USA) was fed.
Before administration of the test compound (specifically, compound shown in Example 98), a choline-deficient amino acid diet was fed for one week, and the drug administration was started. […]
After administration for 3 weeks, the mouse was sacrificed by euthanasia under isoflurane anesthesia under non-fasting and the liver was removed. […] Using RNeasy Mini Kit (Qiagen, Valencia, Calif., USA), the total RNA was purified, cDNA was prepared using High Capacity cDNA Reverse Transcription Kit (PN4368814, Applied Biosystems, Foster City, Calif., USA), and collagen I expression was quantified (collagen type I alpha 1, Part Number 4351370, Applied Biosystems) by the quantitative PCR method (TaqMan Gene Expression Master Mix, PN4369016, Applied Biosystems). […]

For assay [2], the system named is HCT116 cells. In words: Growth inhibitory activity on HCT116 cell (CellTiter-Glo). The format is cell-based. The conditions noted are these: Homo sapiens, HCT-116, 72 h, table head: 10 μM (text b2498: 1 μM), 3 days incubation, read-out: HCT116 cell proliferation inhibitory rate (%) at 10 μM. Summed up: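 HCT116 cells in RPMI with 2% FBS, 900 cells/well, treated the day after seeding and incubated 3 days at 37 °C, 5% CO2. Viability read by CellTiter-Glo luminescence. Percent inhibition calculated relative to untreated wells, with cell-free wells subtracted as background.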

Molecules are shown by their SMILES.

Regarding `CC(NC(N)=O)c1ccc2nc(-c3ccc(Oc4cccc(OCC5CC5)c4)nc3)oc2c1` (centres unmarked) [Example 98, 1-(1-(2-(6-(3-(cyclopropylmethoxy)phenoxy)pyridin-3-yl)-1,3-benzoxazol-6-yl)ethyl)urea], in assay [1], the “expression level of collagen I gene in the liver of a non-alcoholic steatohepatitis model” value is “significantly suppressed”. Moreover, the inhibition at 10 µM in assay [2] came out at 25%.
